Assay results from patent publication US10913744B2, “LRRK2 inhibitors and methods of making and using the same” (Dana-Farber Cancer Institute, Inc., priority 2015, dated 2021).
Like-named read-outs stand apart in the source and are kept apart here.

How the values were obtained:
MET = MET (Homo sapiens (Human), UniProt P08581); test: KinomeScan; format: binding; details: 1 uM
MST3 [1] = target: T1, MST3 (Homo sapiens (Human), UniProt Q9Y6E0); test: Dundee profiling
MLK3 = MLK3 (Homo sapiens (Human), UniProt Q16584); test: Dundee profiling
NEK6 = NEK6 (Homo sapiens (Human), UniProt Q9HC98); test: Dundee profiling
AMPK (hum) = test: Dundee profiling
IKKb = IKKb (Homo sapiens (Human), UniProt O14920); test: Dundee profiling
PKBb = PKBb (Homo sapiens (Human), UniProt P31751); test: Dundee profiling
IR = IR (Homo sapiens (Human), UniProt P06213); test: Dundee profiling
CSNK1G1 = CSNK1G1 (Homo sapiens (Human), UniProt Q9HCP0); test: KinomeScan; format: binding; details: 1 uM
FGF-R1 = FGF-R1 (Homo sapiens (Human), UniProt P11362); test: Dundee profiling
ZAP70 = ZAP70 (Homo sapiens (Human), UniProt P43403); test: Dundee profiling
TGFBR1 = TGFBR1 (Homo sapiens (Human), UniProt P36897); test: Dundee profiling
p38g MAPK = p38g MAPK (Homo sapiens (Human), UniProt P53778); test: Dundee profiling
ITK = ITK (Homo sapiens (Human), UniProt Q08881); test: KinomeScan; format: binding; details: 1 uM
PINK = test: Dundee profiling
PRK2 = PRK2 (Homo sapiens (Human), UniProt Q16513); test: Dundee profiling
SIK2 = SIK2 (Homo sapiens (Human), UniProt Q9H0K1); test: Dundee profiling
MAP4K3 = MAP4K3 (Homo sapiens (Human), UniProt Q8IVH8); test: Dundee profiling
CHK1 = CHK1 (Homo sapiens (Human), UniProt O14757); test: Dundee profiling
IRAK4 [2] = target: T2, IRAK4 (Homo sapiens (Human), UniProt Q9NWZ3); test: KinomeScan; format: binding; details: 1 uM
QSK = QSK (Homo sapiens (Human), UniProt Q9Y2K2); test: KinomeScan; format: binding; details: 1 uM
YES1 = YES1 (Homo sapiens (Human), UniProt P07947); test: Dundee profiling
MST3 [3] = target: T1, MST3; test: KinomeScan; format: binding; details: 1 uM
TrkA = TrkA (Homo sapiens (Human), UniProt P04629); test: Dundee profiling
ROCK2 = ROCK2 (Homo sapiens (Human), UniProt O75116); test: Dundee profiling
SIK = SIK (Homo sapiens (Human), UniProt P57059); test: KinomeScan; format: binding; details: 1 uM
PKCz = PKCz (Homo sapiens (Human), UniProt Q05513); test: Dundee profiling
EGFR (G719S) = EGFR (G719S) (Homo sapiens (Human), UniProt P00533, G719S); test: KinomeScan; format: binding; details: 1 uM
TBK1 = TBK1 (Homo sapiens (Human), UniProt Q9UHD2); test: Dundee profiling
RIPK2 = RIPK2 (Homo sapiens (Human), UniProt O43353); test: Dundee profiling
IRAK4 [4] = target: T2, IRAK4; test: Dundee profiling
BTK = BTK (Homo sapiens (Human), UniProt Q06187); test: KinomeScan; format: binding; details: 1 uM
DYRK1A = DYRK1A (Homo sapiens (Human), UniProt Q13627); test: Dundee profiling
SYK = SYK (Homo sapiens (Human), UniProt P43405); test: KinomeScan; format: binding; details: 1 uM
MLK1 = MLK1 (Homo sapiens (Human), UniProt P80192); test: Dundee profiling
[5] = read-out: percent remaining enzymatic activity
[6] = read-out: percent remaining enzymatic activity, I1, 1 μM
[7] = read-out: percent remaining enzymatic activity, I10

T1 sequence (Q9Y6E0 whole entry, species assumed): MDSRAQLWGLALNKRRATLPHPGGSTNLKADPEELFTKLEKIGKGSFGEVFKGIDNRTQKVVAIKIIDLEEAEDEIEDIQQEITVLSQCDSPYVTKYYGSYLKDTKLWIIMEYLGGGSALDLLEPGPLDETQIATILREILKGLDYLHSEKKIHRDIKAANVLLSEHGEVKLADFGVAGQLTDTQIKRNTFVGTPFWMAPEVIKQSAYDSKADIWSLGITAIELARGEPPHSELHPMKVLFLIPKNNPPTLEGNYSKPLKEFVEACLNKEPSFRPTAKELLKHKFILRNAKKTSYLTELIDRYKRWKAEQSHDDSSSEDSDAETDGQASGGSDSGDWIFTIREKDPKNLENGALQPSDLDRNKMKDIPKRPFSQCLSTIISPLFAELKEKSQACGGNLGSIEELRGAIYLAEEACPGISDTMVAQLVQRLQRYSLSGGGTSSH
Sequence of NEK6 (Q9HC98 whole entry, species assumed): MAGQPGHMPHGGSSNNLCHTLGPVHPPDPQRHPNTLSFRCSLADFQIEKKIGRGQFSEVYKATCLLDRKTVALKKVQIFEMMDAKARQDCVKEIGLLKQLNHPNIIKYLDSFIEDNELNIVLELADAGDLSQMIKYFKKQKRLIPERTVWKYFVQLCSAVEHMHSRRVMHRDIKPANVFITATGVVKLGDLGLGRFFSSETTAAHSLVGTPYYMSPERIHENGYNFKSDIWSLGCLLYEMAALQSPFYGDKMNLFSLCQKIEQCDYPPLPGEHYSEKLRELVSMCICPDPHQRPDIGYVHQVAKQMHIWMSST
Sequence of MLK1 (P80192 whole entry, looked up, species assumed): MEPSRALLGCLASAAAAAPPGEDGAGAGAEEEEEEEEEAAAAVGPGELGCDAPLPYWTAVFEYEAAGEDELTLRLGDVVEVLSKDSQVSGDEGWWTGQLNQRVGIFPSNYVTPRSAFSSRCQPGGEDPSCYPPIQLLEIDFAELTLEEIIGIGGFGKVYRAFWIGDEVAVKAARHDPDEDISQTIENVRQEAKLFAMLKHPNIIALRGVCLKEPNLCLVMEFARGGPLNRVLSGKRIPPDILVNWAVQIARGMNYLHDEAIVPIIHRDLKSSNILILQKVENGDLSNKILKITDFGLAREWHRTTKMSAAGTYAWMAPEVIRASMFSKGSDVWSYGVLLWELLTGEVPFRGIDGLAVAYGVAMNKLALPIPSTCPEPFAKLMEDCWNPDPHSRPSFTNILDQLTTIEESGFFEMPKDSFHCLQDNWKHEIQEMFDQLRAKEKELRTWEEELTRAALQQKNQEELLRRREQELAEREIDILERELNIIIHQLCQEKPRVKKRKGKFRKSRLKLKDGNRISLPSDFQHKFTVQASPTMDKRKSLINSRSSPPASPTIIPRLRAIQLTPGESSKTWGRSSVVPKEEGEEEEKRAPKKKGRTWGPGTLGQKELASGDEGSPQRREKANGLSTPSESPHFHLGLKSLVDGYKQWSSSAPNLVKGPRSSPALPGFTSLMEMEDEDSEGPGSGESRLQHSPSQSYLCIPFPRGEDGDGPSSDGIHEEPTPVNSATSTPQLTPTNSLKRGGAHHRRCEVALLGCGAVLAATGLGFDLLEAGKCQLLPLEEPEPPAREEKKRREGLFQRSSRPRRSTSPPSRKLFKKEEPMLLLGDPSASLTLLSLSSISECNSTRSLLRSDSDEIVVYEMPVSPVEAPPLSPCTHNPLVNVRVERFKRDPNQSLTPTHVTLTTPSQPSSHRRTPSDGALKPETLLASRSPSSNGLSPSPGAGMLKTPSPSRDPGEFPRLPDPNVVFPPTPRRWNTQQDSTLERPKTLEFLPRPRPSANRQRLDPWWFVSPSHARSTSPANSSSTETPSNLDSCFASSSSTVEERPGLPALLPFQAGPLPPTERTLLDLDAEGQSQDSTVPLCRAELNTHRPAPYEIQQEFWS
Sequence of PKBb (P31751 whole entry): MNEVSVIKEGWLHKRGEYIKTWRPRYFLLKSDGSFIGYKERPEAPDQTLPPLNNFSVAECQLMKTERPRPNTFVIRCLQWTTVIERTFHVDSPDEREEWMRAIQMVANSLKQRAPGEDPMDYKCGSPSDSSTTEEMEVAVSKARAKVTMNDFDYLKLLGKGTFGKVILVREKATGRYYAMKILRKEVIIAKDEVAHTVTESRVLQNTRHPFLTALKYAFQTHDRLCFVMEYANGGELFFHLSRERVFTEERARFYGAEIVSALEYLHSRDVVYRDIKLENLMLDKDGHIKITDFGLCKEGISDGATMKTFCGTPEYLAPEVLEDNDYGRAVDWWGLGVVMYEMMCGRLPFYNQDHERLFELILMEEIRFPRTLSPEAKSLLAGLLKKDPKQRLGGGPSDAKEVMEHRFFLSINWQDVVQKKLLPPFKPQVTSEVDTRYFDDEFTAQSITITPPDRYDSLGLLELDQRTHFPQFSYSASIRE
Sequence of IR (P06213 28-1382): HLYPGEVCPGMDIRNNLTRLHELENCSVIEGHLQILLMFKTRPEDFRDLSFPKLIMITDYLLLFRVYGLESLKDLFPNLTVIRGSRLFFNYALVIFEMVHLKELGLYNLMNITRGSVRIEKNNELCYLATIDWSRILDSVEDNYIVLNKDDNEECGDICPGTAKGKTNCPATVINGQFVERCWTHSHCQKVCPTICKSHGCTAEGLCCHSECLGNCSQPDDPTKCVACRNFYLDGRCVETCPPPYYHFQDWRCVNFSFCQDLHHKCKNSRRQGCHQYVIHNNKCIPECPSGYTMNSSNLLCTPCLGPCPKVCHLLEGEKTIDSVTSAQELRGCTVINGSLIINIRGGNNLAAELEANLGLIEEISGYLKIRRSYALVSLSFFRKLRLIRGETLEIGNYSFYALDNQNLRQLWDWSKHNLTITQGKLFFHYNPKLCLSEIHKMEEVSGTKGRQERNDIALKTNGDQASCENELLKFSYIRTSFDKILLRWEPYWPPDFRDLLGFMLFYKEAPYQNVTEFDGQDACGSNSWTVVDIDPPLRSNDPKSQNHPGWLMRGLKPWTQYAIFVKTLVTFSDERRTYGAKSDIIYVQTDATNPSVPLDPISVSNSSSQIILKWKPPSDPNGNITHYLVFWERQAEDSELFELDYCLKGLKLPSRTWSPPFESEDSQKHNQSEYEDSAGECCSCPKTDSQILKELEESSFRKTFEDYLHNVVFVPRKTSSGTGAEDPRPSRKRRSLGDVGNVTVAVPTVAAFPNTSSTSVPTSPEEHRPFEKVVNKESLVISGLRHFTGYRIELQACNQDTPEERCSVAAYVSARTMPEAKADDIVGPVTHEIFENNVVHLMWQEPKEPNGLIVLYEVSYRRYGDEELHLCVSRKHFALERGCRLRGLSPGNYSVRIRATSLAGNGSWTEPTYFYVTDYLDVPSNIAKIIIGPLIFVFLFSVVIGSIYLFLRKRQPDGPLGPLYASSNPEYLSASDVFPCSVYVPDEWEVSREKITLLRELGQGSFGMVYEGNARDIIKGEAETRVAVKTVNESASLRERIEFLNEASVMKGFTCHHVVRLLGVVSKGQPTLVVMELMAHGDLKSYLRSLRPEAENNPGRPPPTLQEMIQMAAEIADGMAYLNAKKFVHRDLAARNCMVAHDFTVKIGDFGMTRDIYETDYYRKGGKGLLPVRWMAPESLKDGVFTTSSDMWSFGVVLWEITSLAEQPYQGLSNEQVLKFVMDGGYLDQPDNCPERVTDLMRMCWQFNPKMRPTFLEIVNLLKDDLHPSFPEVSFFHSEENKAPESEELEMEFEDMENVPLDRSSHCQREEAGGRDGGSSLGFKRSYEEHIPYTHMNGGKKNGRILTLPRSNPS
Sequence of IKKb (O14920 whole entry, species assumed): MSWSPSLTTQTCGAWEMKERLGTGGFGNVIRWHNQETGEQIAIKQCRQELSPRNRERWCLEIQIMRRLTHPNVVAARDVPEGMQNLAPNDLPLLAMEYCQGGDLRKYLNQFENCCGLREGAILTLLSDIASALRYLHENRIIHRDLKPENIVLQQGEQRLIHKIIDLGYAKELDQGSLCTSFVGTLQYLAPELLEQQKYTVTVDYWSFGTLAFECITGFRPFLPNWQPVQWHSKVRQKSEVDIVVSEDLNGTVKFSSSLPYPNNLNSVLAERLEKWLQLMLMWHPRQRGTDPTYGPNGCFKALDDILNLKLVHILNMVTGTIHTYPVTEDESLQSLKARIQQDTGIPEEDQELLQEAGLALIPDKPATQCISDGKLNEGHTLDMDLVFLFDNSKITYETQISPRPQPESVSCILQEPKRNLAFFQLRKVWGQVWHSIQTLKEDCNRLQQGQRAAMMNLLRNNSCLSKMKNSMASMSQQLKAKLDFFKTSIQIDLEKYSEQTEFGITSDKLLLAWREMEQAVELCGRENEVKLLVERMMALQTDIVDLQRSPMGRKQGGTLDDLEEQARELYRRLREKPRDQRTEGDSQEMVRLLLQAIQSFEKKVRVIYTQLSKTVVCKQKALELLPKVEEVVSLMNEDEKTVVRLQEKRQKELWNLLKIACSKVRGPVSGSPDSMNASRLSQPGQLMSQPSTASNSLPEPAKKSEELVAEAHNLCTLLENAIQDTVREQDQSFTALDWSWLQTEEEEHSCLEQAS
Sequence of CHK1 (O14757 whole entry, species assumed): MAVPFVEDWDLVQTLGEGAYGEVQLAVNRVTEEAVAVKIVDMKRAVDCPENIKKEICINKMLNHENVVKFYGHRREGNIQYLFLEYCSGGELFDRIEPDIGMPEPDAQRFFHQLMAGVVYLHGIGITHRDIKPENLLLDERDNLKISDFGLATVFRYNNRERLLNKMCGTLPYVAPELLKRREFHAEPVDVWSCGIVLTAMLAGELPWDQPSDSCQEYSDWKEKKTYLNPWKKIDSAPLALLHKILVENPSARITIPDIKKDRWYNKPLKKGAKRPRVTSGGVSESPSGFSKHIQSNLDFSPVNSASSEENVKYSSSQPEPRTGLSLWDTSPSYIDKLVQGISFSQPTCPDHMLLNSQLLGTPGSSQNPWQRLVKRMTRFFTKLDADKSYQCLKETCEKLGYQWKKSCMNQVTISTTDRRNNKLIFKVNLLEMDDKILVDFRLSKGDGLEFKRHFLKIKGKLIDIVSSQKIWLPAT

In the case of `CNc1nc(Nc2ccc(C(=O)N3CCOCC3)cc2OC)nc2[nH]cc(Cl)c12` [Compound 18, (4-((5-chloro-4-(methylamino)-7H-pyrrolo[2,3-d]pyrimidin-2-yl)amino)-3-methoxyphenyl)(morpholino)methanone], the KinomeScan value (MET) is reported as 97, the “percent remaining enzymatic activity” value (MST3 [1]; I10) is reported as 95% and the remaining activity at 1 µM (MST3 [1]; [5]) is reported as 102%. The “percent remaining enzymatic activity” value (MLK3; I10) was 35%, the remaining activity at 1 µM (MLK3; [5]) was 78% and the remaining activity at 1 µM (NEK6; [6]) was 101%. The remaining activity at 1 µM (NEK6; [7]) was 83%, the “percent remaining enzymatic activity” value (AMPK (hum); I1, 1 μM) was 104% and the “percent remaining enzymatic activity” value (AMPK (hum); I10) was 92%. It also gave a remaining activity at 1 µM (IKKb; [6]) of 100%, a remaining activity at 1 µM (IKKb; [7]) of 95% and a remaining activity at 1 µM (PKBb; [6]) of 118%. The remaining activity at 1 µM (PKBb; [7]) was 103%, the remaining activity at 1 µM (IR; [6]) was 21% and the remaining activity at 1 µM (IR; [7]) was 10%. The KinomeScan value (CSNK1G1) was 97, the remaining activity at 1 µM (FGF-R1; [6]) was 94% and the remaining activity at 1 µM (FGF-R1; [7]) was 102%. The remaining activity at 1 µM (ZAP70; [6]) was 101%, the remaining activity at 1 µM (ZAP70; [7]) was 85% and the remaining activity at 1 µM (TGFBR1; [6]) was 128%. The remaining activity at 1 µM (TGFBR1; [7]) was 119%, the remaining activity at 1 µM (p38g MAPK; [6]) was 116% and the remaining activity at 1 µM (p38g MAPK; [7]) was 96%. For the same compound, the KinomeScan value (ITK) was 88, the “percent remaining enzymatic activity” value (PINK; I1, 1 μM) was 105% and the “percent remaining enzymatic activity” value (PINK; I10) was 89%. For the same compound, the remaining activity at 1 µM (PRK2; [6]) was 103%, the remaining activity at 1 µM (PRK2; [7]) was 93% and the remaining activity at 1 µM (SIK2; [6]) was 109%. For the same compound, the remaining activity at 1 µM (SIK2; [7]) was 92%, the “percent remaining enzymatic activity” value (MAP4K3; I10) was 41% and the remaining activity at 1 µM (MAP4K3; [5]) was 98%. The “percent remaining enzymatic activity” value (CHK1; I10) was 93%, the remaining activity at 1 µM (CHK1; [5]) was 110% and the KinomeScan value (IRAK4 [2]) was 100. The KinomeScan value (QSK) was 86, the “percent remaining enzymatic activity” value (YES1; I10) was 85% and the remaining activity at 1 µM (YES1; [5]) was 85%. For the same compound, the KinomeScan value (MST3 [3]) was 91, the remaining activity at 1 µM (TrkA; [6]) was 85% and the remaining activity at 1 µM (TrkA; [7]) was 84%. For the same compound, the remaining activity at 1 µM (ROCK2; [6]) was 113%, the remaining activity at 1 µM (ROCK2; [7]) was 101% and the KinomeScan value (SIK) was 94. The remaining activity at 1 µM (PKCz; [6]) was 76%, the remaining activity at 1 µM (PKCz; [7]) was 94% and the KinomeScan value (EGFR (G719S)) was 88. It also gave a remaining activity at 1 µM (TBK1; [6]) of 88%, a remaining activity at 1 µM (TBK1; [7]) of 67% and a remaining activity at 1 µM (RIPK2; [6]) of 102%. The remaining activity at 1 µM (RIPK2; [7]) was 83%, the “percent remaining enzymatic activity” value (IRAK4 [4]; I10) was 82% and the remaining activity at 1 µM (IRAK4 [4]; [5]) was 95%. It also gave a KinomeScan value (BTK) of 100, a remaining activity at 1 µM (DYRK1A; [6]) of 49% and a remaining activity at 1 µM (DYRK1A; [7]) of 8%. It also gave a KinomeScan value (SYK) of 80, a remaining activity at 1 µM (MLK1; [6]) of 81% and a remaining activity at 1 µM (MLK1; [7]) of 38%.
